Tests used:
[1] = Cytotoxicity against human KMM-1 cells measured after 3 days; type: functional, cell-based; settings: KMM-1, 72 h
[2] = Cytotoxicity against human HCC1493 cells measured after 3 days; type: functional, cell-based; settings: HCC1493, 72 h
L-363 = experiment: Cytotoxicity against human L-363 cells measured after 3 days; type: functional, cell-based; settings: L-363, 72 h
BJAB = experiment: Cytotoxicity against human BJAB cells measured after 3 days; type: functional, cell-based; settings: 72 h
[3] = Cytotoxicity against human Ci-1 cells measured after 3 days; type: functional, cell-based; settings: Ci-1, 72 h
[4] = Cytotoxicity against human NCE-G 124 cells measured after 3 days; type: functional, cell-based; settings: NCE-G 124, 72 h
[5] = Cytotoxicity against human NCE-G 112 cells measured after 3 days; type: functional, cell-based; settings: NCE-G 112, 72 h
SU-DHL-8 = experiment: Cytotoxicity against human SU-DHL-8 cells measured after 3 days; type: functional, cell-based; settings: SU-DHL-8, 72 h
CAL-85-1 = experiment: Cytotoxicity against human CAL-85-1 cells measured after 3 days; type: functional, cell-based; settings: CAL-85-1, 72 h
TOV112D = experiment: Cytotoxicity against human TOV112D cells measured after 3 days; type: functional, cell-based; settings: 72 h
[6] = Cytotoxicity against human BM-1604 cells measured after 3 days; type: functional, cell-based; settings: BM-1604, 72 h
NCI-H647 = experiment: Cytotoxicity against human NCI-H647 cells measured after 3 days; type: functional, cell-based; settings: NCI-H647, 72 h
[7] = Cytotoxicity against human NCE-G 122 cells measured after 3 days; type: functional, cell-based; settings: NCE-G 122, 72 h
[8] = Cytotoxicity against human KHM-1B cells measured after 3 days; type: functional, cell-based; settings: 72 h
OPM-2 = experiment: Cytotoxicity against human OPM-2 cells measured after 3 days; type: functional, cell-based; settings: OPM-2, 72 h
[9] = Cytotoxicity against human NCI-H820 cells measured after 8 days; type: functional, cell-based; settings: NCI-H820, 192 h
[10] = Cytotoxicity against human PL-21 cells measured after 3 days; type: functional, cell-based; settings: PL-21, 72 h
[11] = Cytotoxicity against human KP-3L cells measured after 3 days; type: functional, cell-based; settings: 72 h
[12] = Cytotoxicity against human 537-mel cells after 8 days; type: functional, cell-based; settings: 192 h
[13] = Cytotoxicity against human NCI-H1568 cells after 8 days; type: functional, cell-based; settings: NCI-H1568, 192 h
[14] = Cytotoxicity against human Sc-1 cells measured after 3 days; type: functional, cell-based; settings: SC-1, 72 h
OVCAR-4 = experiment: Cytotoxicity against human OVCAR-4 cells measured after 3 days; type: functional, cell-based; settings: OVCAR-4, 72 h
[15] = Cytotoxicity against human OV7 cells measured after 3 days; type: functional, cell-based; settings: OV7, 72 h
[16] = Cytotoxicity against human Hs 839.T cells measured after 3 days; type: functional, cell-based; settings: 72 h
SUM149PT = experiment: Cytotoxicity against human SUM149PT cells measured after 3 days; type: functional, cell-based; settings: 72 h
[17] = Cytotoxicity against human Karpas-620 cells measured after 3 days; type: functional, cell-based; settings: Karpas-620, 72 h
OV-90 = experiment: Cytotoxicity against human OV-90 cells measured after 3 days; type: functional, cell-based; settings: OV-90, 72 h
[18] = Cytotoxicity against human HCC630 cells measured after 3 days; type: functional, cell-based; settings: HCC630, 72 h
HuCCT-1 = experiment: Cytotoxicity against human HuCCT-1 cells measured after 3 days; type: functional, cell-based; settings: HuCCT-1, 72 h
MDA-MB-361 = experiment: Cytotoxicity against human MDA-MB-361 cells measured after 3 days; type: functional, cell-based; settings: MDA-MB-361, 72 h
ES-2 = experiment: Cytotoxicity against human ES2 cells measured after 3 days; type: functional, cell-based; settings: ES-2, 72 h
IMR-32 = experiment: Cytotoxicity against human IMR-32 cells measured after 3 days; type: functional, cell-based; settings: IMR-32, 72 h
TK-10 = experiment: Cytotoxicity against human TK-10 cells measured after 3 days; type: functional, cell-based; settings: TK-10, 72 h
KMS-12-BM = experiment: Cytotoxicity against human KMS-12-BM cells measured after 3 days; type: functional, cell-based; settings: 72 h
OVCAR-8 = experiment: Cytotoxicity against human OVCAR-8 cells measured after 3 days; type: functional, cell-based; settings: OVCAR-8, 72 h
G-402 = experiment: Cytotoxicity against human G-402 cells measured after 3 days; type: functional, cell-based; settings: G-402, 72 h
COR-L47 = experiment: Cytotoxicity against human COR-L47 cells measured after 3 days; type: functional, cell-based; settings: COR-L47, 72 h
[19] = Cytotoxicity against human MT-3 cells measured after 3 days; type: functional, cell-based; settings: MT-3, 72 h
NCI-H460 = experiment: Cytotoxicity against human NCI-H460 cells measured after 3 days; type: functional, cell-based; settings: NCI-H460, 72 h
[20] = Cytotoxicity against human LS174T-HM7 cells measured after 3 days; type: functional, cell-based; settings: LS174T-HM7, 72 h
JIYOYE = experiment: Cytotoxicity against human JIYOYE cells measured after 3 days; type: functional, cell-based; settings: 72 h
SNU-449 = experiment: Cytotoxicity against human SNU-449 cells measured after 3 days; type: functional, cell-based; settings: SNU-449, 72 h
HCC1419 = experiment: Cytotoxicity against human HCC1419 cells measured after 3 days; type: functional, cell-based; settings: HCC1419, 72 h
OCI-AML-5 = experiment: Cytotoxicity against human OCI-AML5 cells measured after 3 days; type: functional, cell-based; settings: OCI-AML-5, 72 h
[21] = Cytotoxicity against human COV362.4 cells measured after 3 days; type: functional, cell-based; settings: COV362.4, 72 h
[22] = Cytotoxicity against human ONCO-DG-1 cells measured after 3 days; type: functional, cell-based; settings: ONCO-DG-1, 72 h
SNU-398 = experiment: Cytotoxicity against human SNU-398 cells measured after 3 days; type: functional, cell-based; settings: SNU-398, 72 h
U-698-M = experiment: Cytotoxicity against human U-698-M cells measured after 3 days; type: functional, cell-based; settings: 72 h
HCC95 = experiment: Cytotoxicity against human HCC95 cells measured after 3 days; type: functional, cell-based; settings: HCC95, 72 h
LN-18 = experiment: Cytotoxicity against human LN-18 cells measured after 3 days; type: functional, cell-based; settings: LN-18, 72 h
[23] = Cytotoxicity against human COV413A cells measured after 3 days; type: functional, cell-based; settings: 72 h
SNU-423 = experiment: Cytotoxicity against human SNU-423 cells measured after 3 days; type: functional, cell-based; settings: SNU-423, 72 h
SR = experiment: Cytotoxicity against human SR cells measured after 3 days; type: functional, cell-based; settings: 72 h
MCF-10A = experiment: Cytotoxicity against human MCF-10A cells measured after 3 days; type: functional, cell-based; settings: 72 h
[24] = Cytotoxicity against human RKN cells measured after 3 days; type: functional, cell-based; settings: 72 h
NCI-H1944 = experiment: Cytotoxicity against human NCI-H1944 cells measured after 3 days; type: functional, cell-based; settings: NCI-H1944, 72 h
JeKo-1 = experiment: Cytotoxicity against human JeKo-1 cells measured after 3 days; type: functional, cell-based; settings: JeKo-1, 72 h
U-266 = experiment: Cytotoxicity against human U266B1 cells measured after 3 days; type: functional, cell-based; settings: U-266, 72 h
[25] = Cytotoxicity against human OVTOKO cells measured after 3 days; type: functional, cell-based; settings: 72 h
NB-4 = experiment: Cytotoxicity against human NB-4 cells measured after 8 days; type: functional, cell-based; settings: NB-4, 192 h
HL-60 = experiment: Cytotoxicity against human HL-60 cells measured after 8 days; type: functional, cell-based; settings: HL-60, 192 h
GABA-B receptor = GABA-B receptor (Homo sapiens, UniProt O75899+Q9UBS5); experiment: Inhibition of human GABA-B receptor at 10 uM relative to control; type: protein-complex assay
Chain of GABA-B receptor (Q9UBS5 whole entry): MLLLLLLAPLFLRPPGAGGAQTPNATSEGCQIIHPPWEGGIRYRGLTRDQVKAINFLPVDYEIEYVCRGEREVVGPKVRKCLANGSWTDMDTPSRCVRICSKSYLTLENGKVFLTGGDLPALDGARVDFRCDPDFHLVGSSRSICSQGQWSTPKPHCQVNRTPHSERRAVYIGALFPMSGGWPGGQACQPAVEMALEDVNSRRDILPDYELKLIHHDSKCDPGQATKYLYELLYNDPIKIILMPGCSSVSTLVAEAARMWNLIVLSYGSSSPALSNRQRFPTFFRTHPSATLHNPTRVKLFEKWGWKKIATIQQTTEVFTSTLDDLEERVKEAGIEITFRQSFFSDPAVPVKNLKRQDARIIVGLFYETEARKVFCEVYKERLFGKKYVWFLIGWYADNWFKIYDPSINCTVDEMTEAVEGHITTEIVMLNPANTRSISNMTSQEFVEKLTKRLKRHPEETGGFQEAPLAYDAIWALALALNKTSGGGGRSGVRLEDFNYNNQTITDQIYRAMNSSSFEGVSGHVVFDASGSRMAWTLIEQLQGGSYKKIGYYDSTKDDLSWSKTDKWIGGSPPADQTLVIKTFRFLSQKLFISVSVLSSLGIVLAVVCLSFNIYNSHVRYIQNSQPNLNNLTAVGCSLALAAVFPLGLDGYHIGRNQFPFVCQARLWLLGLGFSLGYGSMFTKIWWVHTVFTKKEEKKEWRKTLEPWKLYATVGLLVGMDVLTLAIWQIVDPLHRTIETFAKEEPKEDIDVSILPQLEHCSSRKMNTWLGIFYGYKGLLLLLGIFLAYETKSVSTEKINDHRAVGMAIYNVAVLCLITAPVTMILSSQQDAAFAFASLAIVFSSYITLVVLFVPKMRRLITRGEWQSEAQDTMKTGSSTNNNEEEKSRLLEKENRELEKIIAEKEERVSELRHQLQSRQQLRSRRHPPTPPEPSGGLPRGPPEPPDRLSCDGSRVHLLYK
Chain of GABA-B receptor (O75899 whole entry): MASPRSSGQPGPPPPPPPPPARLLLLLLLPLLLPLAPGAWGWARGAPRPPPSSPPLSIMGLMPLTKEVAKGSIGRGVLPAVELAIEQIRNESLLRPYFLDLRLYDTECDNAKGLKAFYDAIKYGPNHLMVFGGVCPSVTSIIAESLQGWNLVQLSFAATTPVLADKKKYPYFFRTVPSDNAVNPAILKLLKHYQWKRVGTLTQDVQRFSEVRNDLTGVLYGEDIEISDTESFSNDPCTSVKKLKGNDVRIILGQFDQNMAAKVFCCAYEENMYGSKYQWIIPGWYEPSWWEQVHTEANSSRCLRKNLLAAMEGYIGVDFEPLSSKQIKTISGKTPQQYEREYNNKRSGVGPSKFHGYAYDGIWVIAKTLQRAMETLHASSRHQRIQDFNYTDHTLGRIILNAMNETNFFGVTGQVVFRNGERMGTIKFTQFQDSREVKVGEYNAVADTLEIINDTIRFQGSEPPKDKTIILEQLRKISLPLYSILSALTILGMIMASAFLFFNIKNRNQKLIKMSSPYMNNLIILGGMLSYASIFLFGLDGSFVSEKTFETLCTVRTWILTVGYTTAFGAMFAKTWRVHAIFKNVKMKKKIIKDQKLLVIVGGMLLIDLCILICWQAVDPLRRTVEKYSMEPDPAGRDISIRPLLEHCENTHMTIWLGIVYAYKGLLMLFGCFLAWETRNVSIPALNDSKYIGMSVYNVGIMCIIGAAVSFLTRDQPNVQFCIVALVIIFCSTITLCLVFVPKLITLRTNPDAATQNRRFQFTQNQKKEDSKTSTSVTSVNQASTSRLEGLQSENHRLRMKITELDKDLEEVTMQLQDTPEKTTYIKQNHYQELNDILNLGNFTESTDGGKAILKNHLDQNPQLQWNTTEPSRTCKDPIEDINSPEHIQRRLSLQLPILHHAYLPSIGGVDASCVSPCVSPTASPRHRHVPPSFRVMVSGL

For `C/C=C/Cn1cc(-c2cc(OC)c(C(=O)N3CCOCC3)cc2OC)c2cc(C)[nH]c2c1=O`, the IC50 [1] was 5 µM, the IC50 [2] was 5 µM and the IC50 (L-363) was 5 µM. The IC50 (BJAB) was 5 µM, the IC50 [3] was 5 µM and the IC50 [4] was 5 µM. The IC50 [5] was 5 µM, the IC50 (SU-DHL-8) was 5 µM and the IC50 (CAL-85-1) was 5 µM. It also gave an IC50 (TOV112D) of 5 µM, an IC50 [6] of 5 µM and an IC50 (NCI-H647) of 5 µM. The IC50 [7] was 5 µM, the IC50 [8] was 5 µM and the IC50 (OPM-2) was 5 µM. The IC50 [9] was 2 µM, the IC50 [10] was 5 µM and the IC50 [11] was 5 µM. For the same compound, the IC50 [12] was 2 µM, the IC50 [13] was 2 µM and the IC50 [14] was 5 µM. The IC50 (OVCAR-4) was 5 µM, the IC50 [15] was 5 µM and the IC50 [16] was 5 µM. For the same compound, the IC50 (SUM149PT) was 5 µM, the IC50 [17] was 5 µM and the IC50 (OV-90) was 5 µM. It also gave an IC50 [18] of 5 µM, an IC50 (HuCCT-1) of 5 µM and an IC50 (MDA-MB-361) of 5 µM. The IC50 (ES-2) was 5 µM, the IC50 (IMR-32) was 5 µM and the IC50 (TK-10) was 5 µM. For the same compound, the IC50 (KMS-12-BM) was 5 µM, the IC50 (OVCAR-8) was 5 µM and the IC50 (G-402) was 5 µM. For the same compound, the IC50 (COR-L47) was 5 µM, the IC50 [19] was 5 µM and the IC50 (NCI-H460) was 5 µM. For the same compound, the IC50 [20] was 5 µM, the IC50 (JIYOYE) was 5 µM and the IC50 (SNU-449) was 5 µM. It also gave an IC50 (HCC1419) of 5 µM, an IC50 (OCI-AML-5) of 5 µM and an IC50 [21] of 5 µM. The IC50 [22] was 5 µM, the IC50 (SNU-398) was 5 µM and the IC50 (U-698-M) was 5 µM. It also gave an IC50 (HCC95) of 5 µM, an IC50 (LN-18) of 5 µM and an IC50 [23] of 5 µM. It also gave an IC50 (SNU-423) of 5 µM, an IC50 (SR) of 5 µM and an IC50 (MCF-10A) of 5 µM. The IC50 [24] was 5 µM, the IC50 (NCI-H1944) was 5 µM and the IC50 (JeKo-1) was 5 µM. The IC50 (U-266) was 5 µM and the IC50 [25] was 5 µM.

`C/C=C/Cn1cc(-c2ccc(C(C)(C)O)cc2OC)c2cc[nH]c2c1=O` gave an IC50 (NB-4) of 20 µM, an IC50 (HL-60) of 13.6 µM and an IC50 (GABA-B receptor) of 4 µM.

— ChEMBL document CHEMBL5260810, “Inhibition of bromodomain-containing protein 9 for the prevention of epigenetically-defined drug resistance” (Bioorg Med Chem Lett, 2017)
